# In paper PMC7932537, “Quantitative profiling of protease specificity” (PLoS Computational Biology, 2021):
# Columns and labels:
# MMP-2 = assay: Substrate phage display with NGS: relative probability (RP) of P3-P1' tetramer clusters; format: biochemical, human; settings: for relative probability (RP) of matching tetramer: P3-P1' tetramer matching the MS detected MMP2 cleavage sequence, RP_above_4.5; for normalized RP - MMP2: normalized RP of matching tetramer; for MMP2 relative probability (RP): MMP2 tetramers from unique substrates, unrounded values
# MMP-9 = assay: as above; format: biochemical, human; settings: for normalized RP - MMP9: normalized RP of matching tetramer; for corresponding MMP9 relative probability (RP): MMP2 tetramers from unique substrates, RP of same tetramer for MMP9
# [1] = MMP2, RP of matching P3-P1' tetramer, common set of MMP2-9 selectome, RP above KL threshold
# [2] = RP of matching tetramer, common MMP2-9 selectome
# [3] = MMP9, RP of matching P3-P1' tetramer, common set of MMP2-9 selectome
# [4] = MMP9, RP of the P3-P1' tetramer matching the MS detected cleavage, RP above 4.7, substrate phage display with NGS
# [5] = RP of matching tetramer, common MMP2-9 selectome, RP above KL threshold
# [6] = RP of matching tetramer, unique part of MMP2 selectome, RP above KL threshold
# [7] = RP of matching tetramer, unique part of MMP2 selectome
# [8] = RP according to MMP2, P3-P1' tetramer of unique physiologic MMP2 substrates from MEROPS
# [9] = RP of the P3-P1' tetramer, MMP2 substrate phage display/NGS, tetramers of physiologic MEROPS substrates common to MMP2 and MMP9
# [10] = RP according to MMP9, P3-P1' tetramer of unique physiologic MMP9 substrates from MEROPS
# [11] = RP of the P3-P1' tetramer, MMP9 substrate phage display/NGS, tetramers of physiologic MEROPS substrates common to MMP2 and MMP9
# [12] = RP of the P3-P1' tetramer cluster contained in the hexamer, 200 nM MMP-2, 2 h, 37°C, two rounds of selection
# [13] = MMP9, RP of the P3-P1' tetramer contained in the hexamer substrate (substrate phage display, NGS)
substance,measurement,setting,value
LAWL,avg_RP,"MMP-2; MMP2 - no binning, average relative probability of the P3-P1' tetramer, redundant tetramers have been averaged out",22.0358
same,relative probability (RP) (acc.to MMP2),MMP-2; [1],22.04
same,relative probability (RP) of matching tetramer,MMP-2,22.04
same,relative probability (RP) (acc.to MMP2),MMP-2; [2],22.04
same,relative probability (RP) (acc.to MMP9),MMP-9; [3],19.78
same,relative probability (RP),MMP-9; [4],19.78
same,relative probability (RP) (acc.to MMP9),MMP-9; [5],19.78
LAYL,relative probability (RP) of matching tetramer,MMP-2,25.34
same,relative probability (RP) (acc.to MMP2),MMP-2; [6],25.34
same,normalized RP - MMP2,MMP-2; unique part of MMP2 selectome,0.6939
same,relative probability (RP) (acc.to MMP9),MMP-9; [7],2.51
same,normalized RP - MMP9,MMP-9; unique part of MMP2 selectome,0.04792
LFGL,relative probability (RP) (acc.to MMP2),MMP-2; [1],12.87
same,relative probability (RP) of matching tetramer,MMP-2,12.87
same,relative probability (RP) (acc.to MMP2),MMP-2; [2],12.87
same,relative probability (RP) (acc.to MMP9),MMP-9; [3],14.17
same,relative probability (RP),MMP-9; [4],14.17
same,relative probability (RP) (acc.to MMP9),MMP-9; [5],14.17
LGRF,MMP2 relative probability (RP),MMP-2,13.9898
same,Relative probability (RP) rank,MMP-2; [8],3427
same,relative probability (RP),MMP-2; [8],13.99
same,corresponding MMP9 relative probability (RP),MMP-9,1.477
LGRY,relative probability (RP) of matching tetramer,MMP-2,17.67
same,relative probability (RP) (acc.to MMP2),MMP-2; [6],17.67
same,normalized RP - MMP2,MMP-2; unique part of MMP2 selectome,0.4838
same,relative probability (RP) (acc.to MMP9),MMP-9; [7],1.95
same,normalized RP - MMP9,MMP-9; unique part of MMP2 selectome,0.03723
LGTY,MMP2 relative probability (RP),MMP-2,6.755
same,Relative probability (RP) rank,MMP-2; [8],6426
same,relative probability (RP),MMP-2; [8],6.75
same,corresponding MMP9 relative probability (RP),MMP-9,0.2972
LGVM,MMP2 relative probability (RP),MMP-2,4.758
same,Relative probability (RP) rank,MMP-2; [8],7712
same,relative probability (RP),MMP-2; [8],4.76
same,relative probability (RP) (acc.to MMP2),MMP-2; [9],4.76
same,corresponding MMP9 relative probability (RP),MMP-9,1.791
same,Relative probability (RP) rank,MMP-9; [10],10648
same,relative probability (RP),MMP-9; [10],1.79
same,relative probability (RP) (acc.to MMP9),MMP-9; [11],1.79
LPKPLR,relative probability (RP),MMP-2; [12],33.5622
same,relative probability (RP),MMP-9; [13],48.2599
LRAV,relative probability (RP) (acc.to MMP2),MMP-2; [2],11.96
same,relative probability (RP),MMP-9; [4],11.9
same,relative probability (RP) (acc.to MMP9),MMP-9; [5],11.9
LREL,relative probability (RP) (acc.to MMP2),MMP-2; [1],21.53
same,relative probability (RP) of matching tetramer,MMP-2,21.53
same,relative probability (RP) (acc.to MMP2),MMP-2; [2],21.53
same,relative probability (RP) (acc.to MMP9),MMP-9; [3],21.21
same,relative probability (RP),MMP-9; [4],21.21
same,relative probability (RP) (acc.to MMP9),MMP-9; [5],21.21
LRGL,relative probability (RP) (acc.to MMP2),MMP-2; [9],20.33
same,relative probability (RP) (acc.to MMP9),MMP-9; [11],28.75
LSKI,MMP2 relative probability (RP),MMP-2,4.524
same,Relative probability (RP) rank,MMP-2; [8],7909
same,relative probability (RP),MMP-2; [8],4.52
same,relative probability (RP) (acc.to MMP2),MMP-2; [9],4.52
same,corresponding MMP9 relative probability (RP),MMP-9,0.06898
same,Relative probability (RP) rank,MMP-9; [10],65498
same,relative probability (RP),MMP-9; [10],0.07
same,relative probability (RP) (acc.to MMP9),MMP-9; [11],0.07
LSPFGQ,relative probability (RP),MMP-2; [12],16.8686
same,relative probability (RP),MMP-9; [13],36.0266
LSWL,relative probability (RP) (acc.to MMP2),MMP-2; [1],25.56
same,relative probability (RP) of matching tetramer,MMP-2,25.56
same,relative probability (RP) (acc.to MMP2),MMP-2; [2],25.56
same,relative probability (RP) (acc.to MMP9),MMP-9; [3],20.21
same,relative probability (RP),MMP-9; [4],20.21
same,relative probability (RP) (acc.to MMP9),MMP-9; [5],20.21
MAGM,MMP2 relative probability (RP),MMP-2,21.4504
same,Relative probability (RP) rank,MMP-2; [8],1484
same,relative probability (RP),MMP-2; [8],21.45
same,corresponding MMP9 relative probability (RP),MMP-9,0.06237
MASQ,MMP2 relative probability (RP),MMP-2,16.7049
same,Relative probability (RP) rank,MMP-2; [8],2583
same,relative probability (RP),MMP-2; [8],16.7
same,corresponding MMP9 relative probability (RP),MMP-9,0
MGPLGQ,relative probability (RP),MMP-2; [12],28.8115
same,relative probability (RP),MMP-9; [13],44.3652
MGSL,MMP2 relative probability (RP),MMP-2,28.8961
same,Relative probability (RP) rank,MMP-2; [8],452
same,relative probability (RP),MMP-2; [8],28.9
same,corresponding MMP9 relative probability (RP),MMP-9,3.398
MNML,relative probability (RP) of matching tetramer,MMP-2,8.39
same,relative probability (RP) (acc.to MMP2),MMP-2; [6],8.39
same,normalized RP - MMP2,MMP-2; unique part of MMP2 selectome,0.2297
same,relative probability (RP) (acc.to MMP9),MMP-9; [7],0.4
same,normalized RP - MMP9,MMP-9; unique part of MMP2 selectome,0.007637
MRPVGH,relative probability (RP),MMP-2; [12],23.4937
same,relative probability (RP),MMP-9; [13],20.8057
MSAF,MMP2 relative probability (RP),MMP-2,20.9521
same,Relative probability (RP) rank,MMP-2; [8],1585
same,relative probability (RP),MMP-2; [8],20.95
same,corresponding MMP9 relative probability (RP),MMP-9,1.271
MSPANI,relative probability (RP),MMP-2; [12],33.5547
same,relative probability (RP),MMP-9; [13],46.3162
